Laboratory results from patent US7574340B2 (priority 2003, dated 2009).

Legend:
[1] = target: T1, BoNT/A LC (Clostridium botulinum, UniProt P0DPI0); assay: biochemical; assay type: biochemical
[2] = target: BoNT/A holotoxin (Clostridium botulinum, UniProt P0DPI0); conditions: 3.3 μM; cited from earlier work
[3] = target: anthrax lethal factor (Bacillus anthracis, UniProt P15917); assay type: biochemical
[4] = target: BoNT serotype B light chain (BoNT/B LC) (Clostridium botulinum, UniProt P10844); assay type: biochemical
Chain of BoNT serotype B light chain (BoNT/B LC) (P10844 2-441 limits assumed): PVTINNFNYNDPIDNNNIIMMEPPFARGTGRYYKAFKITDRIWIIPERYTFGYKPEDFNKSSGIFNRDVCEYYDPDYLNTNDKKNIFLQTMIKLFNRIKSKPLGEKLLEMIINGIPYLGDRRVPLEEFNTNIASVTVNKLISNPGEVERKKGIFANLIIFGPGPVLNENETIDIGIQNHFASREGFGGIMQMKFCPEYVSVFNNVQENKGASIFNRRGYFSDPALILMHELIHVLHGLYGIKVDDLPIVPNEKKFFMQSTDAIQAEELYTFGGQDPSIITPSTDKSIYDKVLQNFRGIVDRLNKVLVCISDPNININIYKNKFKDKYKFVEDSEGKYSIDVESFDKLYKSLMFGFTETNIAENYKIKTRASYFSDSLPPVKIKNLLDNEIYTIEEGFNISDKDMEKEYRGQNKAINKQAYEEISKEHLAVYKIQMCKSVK

[5] = target: T1, BoNT/A LC; conditions: cited from earlier work

T1 sequence (P0DPI0 2-448 limits assumed): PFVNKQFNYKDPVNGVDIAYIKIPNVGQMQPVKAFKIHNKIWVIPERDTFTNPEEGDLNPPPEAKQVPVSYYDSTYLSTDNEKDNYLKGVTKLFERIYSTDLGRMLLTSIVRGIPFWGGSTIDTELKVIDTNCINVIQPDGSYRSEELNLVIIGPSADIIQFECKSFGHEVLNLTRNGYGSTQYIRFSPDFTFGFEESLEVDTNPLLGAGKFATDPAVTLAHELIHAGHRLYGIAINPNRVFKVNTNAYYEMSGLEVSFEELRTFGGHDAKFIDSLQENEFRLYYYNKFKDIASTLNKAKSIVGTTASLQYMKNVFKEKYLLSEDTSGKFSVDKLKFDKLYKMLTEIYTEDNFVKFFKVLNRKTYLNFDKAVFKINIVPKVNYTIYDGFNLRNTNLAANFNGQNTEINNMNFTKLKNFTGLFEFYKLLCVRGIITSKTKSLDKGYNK
Chain of anthrax lethal factor (P15917 34-809 limits assumed): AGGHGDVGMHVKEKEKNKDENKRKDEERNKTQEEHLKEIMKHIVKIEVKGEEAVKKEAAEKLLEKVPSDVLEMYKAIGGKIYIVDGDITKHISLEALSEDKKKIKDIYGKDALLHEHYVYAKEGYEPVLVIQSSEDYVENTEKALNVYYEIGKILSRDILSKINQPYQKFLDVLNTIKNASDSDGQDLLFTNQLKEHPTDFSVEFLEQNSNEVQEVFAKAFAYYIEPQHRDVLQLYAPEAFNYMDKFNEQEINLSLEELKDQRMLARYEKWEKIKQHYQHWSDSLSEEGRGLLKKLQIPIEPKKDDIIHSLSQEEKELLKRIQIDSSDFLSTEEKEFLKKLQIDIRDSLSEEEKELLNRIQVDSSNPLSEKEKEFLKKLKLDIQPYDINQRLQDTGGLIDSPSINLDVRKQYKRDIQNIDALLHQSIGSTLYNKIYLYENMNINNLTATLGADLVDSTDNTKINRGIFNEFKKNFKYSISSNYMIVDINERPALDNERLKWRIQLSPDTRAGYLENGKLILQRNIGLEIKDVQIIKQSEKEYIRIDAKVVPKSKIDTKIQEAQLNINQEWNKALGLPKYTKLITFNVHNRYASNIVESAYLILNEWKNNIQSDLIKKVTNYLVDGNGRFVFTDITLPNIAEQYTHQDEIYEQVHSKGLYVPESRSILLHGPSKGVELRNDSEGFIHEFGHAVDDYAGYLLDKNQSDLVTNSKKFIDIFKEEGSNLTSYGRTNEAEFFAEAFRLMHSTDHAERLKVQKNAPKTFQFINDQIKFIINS
Chain of BoNT/A holotoxin (P0DPI0 2-448 limits assumed): as the sequence (P0DPI0 2-448 limits assumed) above
Chain of BoNT/A holotoxin (P0DPI0 449-1296 limits assumed): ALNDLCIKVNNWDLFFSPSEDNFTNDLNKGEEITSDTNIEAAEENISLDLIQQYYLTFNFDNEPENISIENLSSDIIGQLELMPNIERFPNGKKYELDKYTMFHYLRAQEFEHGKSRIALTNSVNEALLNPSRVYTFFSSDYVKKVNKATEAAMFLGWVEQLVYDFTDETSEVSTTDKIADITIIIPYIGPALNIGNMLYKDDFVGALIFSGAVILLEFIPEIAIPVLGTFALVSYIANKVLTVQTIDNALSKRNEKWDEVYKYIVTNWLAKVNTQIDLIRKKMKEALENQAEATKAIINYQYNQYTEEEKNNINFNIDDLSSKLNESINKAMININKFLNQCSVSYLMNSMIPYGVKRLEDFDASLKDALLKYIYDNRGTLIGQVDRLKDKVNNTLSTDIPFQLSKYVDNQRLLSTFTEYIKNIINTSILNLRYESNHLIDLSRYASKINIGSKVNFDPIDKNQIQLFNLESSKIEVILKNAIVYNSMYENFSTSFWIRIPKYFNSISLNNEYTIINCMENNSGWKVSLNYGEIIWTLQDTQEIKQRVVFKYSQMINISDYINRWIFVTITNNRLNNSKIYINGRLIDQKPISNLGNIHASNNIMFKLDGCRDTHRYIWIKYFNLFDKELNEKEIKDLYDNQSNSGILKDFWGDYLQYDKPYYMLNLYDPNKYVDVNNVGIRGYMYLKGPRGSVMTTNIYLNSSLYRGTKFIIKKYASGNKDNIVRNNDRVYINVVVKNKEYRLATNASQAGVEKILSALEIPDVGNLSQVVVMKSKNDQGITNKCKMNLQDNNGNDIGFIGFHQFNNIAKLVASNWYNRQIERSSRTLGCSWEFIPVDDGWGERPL

## CCN(CC)CCCC(C)Nc1ccnc2cc(Cl)ccc12 (racemic) [Chloroquine (racemic), Chloroquine]
[1]
  inhibition at 20 µM: 20%

## CCN(CC)CCCC(C)Nc1c2ccc(Cl)cc2nc2ccc(OC)cc12 (racemic) [Quinacrine (racemic), Quinacrine]
[1]
  inhibition at 20 µM: 30%
[2]
  delay of the time to about 50% muscle paralysis (over control): at least 30%

## CCN(CC)Cc1cc(Nc2ccnc3cc(Cl)ccc23)ccc1O [Amodiaquine]
[1]
  % Inhibition: 20%
  inhibition at 20 µM: 30%

## CCOc1ccc2c(ccc(/C=C/c3ccc4c(C)ccnc4c3O)[n+]2C)c1 [NSC 86372]
[3]
  inhibition of anthrax lethal factor (in words): inhibit
[1]
  effect of addition of zinc on inhibition: immediately and quantitatively reversed inhibition
  inhibition at 20 µM: 51%
[4]
  inhibition of BoNT/B LC protease activity (in words): inhibit

## O=C(O)c1c(I)c(I)c(I)c(I)c1C1c2ccc(O)cc2Oc2cc(O)ccc21 [NSC 119889]
[1]
  inhibition at 20 µM: 56%

## O=[N+]([O-])c1cc(Cc2cc([N+](=O)[O-])c3cccnc3c2O)c(O)c2ccccc12 [NSC 130796]
[3]
  inhibition of anthrax lethal factor (in words): inhibit
[1]
  inhibition at 20 µM: 48%
[4]
  inhibition of BoNT/B LC protease activity (in words): inhibit

## Nc1c(/C=C/c2cc3cc(C4=NCCN4)ccc3o2)[nH]c2cc(C3=NCCN3)ccc12 [NSC 357756]
[1]
  inhibition at 20 µM: 57%

## Ic1ccc2nc3cc(Nc4ccc5c(c4)nc4ccc(I)cc4[n+]5-c4ccccc4)ccc3[n+](-c3ccccc3)c2c1 [NSC 402959]
[1]
  inhibition at 20 µM: 40%

## COc1cc(C)cc2c(-c3c(O)cc(O)c4c3C[C@@H](C)N[C@@H]4C)cc(-c3cc(-c4c(O)cc(O)c5c4C[C@@H](C)N[C@@H]5C)c4cc(C)cc(OC)c4c3O)c(O)c12 [NSC 661755, Michellamine B]
[1]
  effect of added zinc on inhibition of BoNT/A LC: not affected by added zinc
  inhibition at 20 µM: 62%

## C[C@H](CS)C(=O)N1CCC[C@H]1C(=O)O [captopril]
[5]
  BoNT/A LC inhibition (in words): inhibited by mM concentrations

## CCOC(=O)[C@H](CCc1ccccc1)N[C@@H](C)C(=O)N1CCC[C@H]1C(=O)O [enalapril]
[5]
  BoNT/A LC inhibition (in words): inhibited by mM concentrations

## NCCCC[C@H](N[C@@H](CCc1ccccc1)C(=O)O)C(=O)N1CCC[C@H]1C(=O)O [lysinopril]
[5]
  BoNT/A LC inhibition (in words): inhibited by mM concentrations

## [Ag+] [silver ion]
[1]
  effect of addition of DTT on inhibition: immediately reversed inhibition
  effect of zinc in assays on inhibition: no effect
  inhibition of protease activity: about 100%

## Quinidine
[1]
  % Inhibition: 9 3%

## Quinine
[1]
  % Inhibition: 9 3%
